Results taken from ChEMBL document CHEMBL1137619, “Synthesis, structure-activity relationship and in vivo antiinflammatory efficacy of substituted dipiperidines as CCR2 antagonists” (J Med Chem, 2007).

Tests used:
Format in all cases: ADME, organism-based
Settings in all cases: in vivo
[1] = Half life in rat at 10 mg/kg, po; set-up: dose 10 mg/kg, route oral
[2] = Bioavailability in rat at 10 mg/kg, po
[3] = Bioavailability in rat at 10 mg/kg, ip

## O=C(O)[C@H](C1CCN(C(=O)/C=C/c2cc(F)c(F)c(F)c2)CC1)N1CCC(c2c[nH]c3ccccc23)CC1
[1]
  half-life: 7 h
[2]
  bioavailability: 15%
[3]
  bioavailability: 100%
